The values below come from ChEMBL document CHEMBL5725801, “Fused heterocyclic compounds as CaM kinase inhibitors” (2018).

The nature of this experiment: CaMKII Cell-Based Activity: CaMKII activity in neonatal rat ventricular myocytes (NRVM) was measured by monitoring the phosphorylation level of phospholamban using high-content imaging. NRVMs were plated in a clear bottom 384-well plate in medium supplemented with 10% fetal bovine serum (FBS) and incubated at 37° C., 5% CO2 overnight. The medium was changed to a serum-free medium and compounds were dosed to the cells. The cells were incubated at 37° C., 5% CO2 for 4 hours and were then treated with 100 nM ATX-II (Alomone Labs) to activate CaMKII. 10 minutes after the addition of ATX-II, the cells were fixed with 4% formaldehyde followed by permeabilization with 0.1% triton X100. The fixed cells were stained with an anti-phospho-phospholamban primary antibody (Santa Cruz Biotechnology) and an Alexa488-labeled anti-rabbit IgG secondary antibody (Life Technologies Corporation) as well as Hoechst 33342 (Life Technologies Corporation). The cells were imaged using an ArrayScan VTI (Cellomics) and analyzed for cells containing a positive fluorescent signal at 485 nm, reported as % responder. The % responders were plotted against the compound concentration to determine the compounds EC50.

On to `CCN(CC)[C@@H](C)CNC(=O)c1cc(NC2COC2)nc(-c2cnn3ccc(-c4cccs4)nc23)c1`, for which the EC50 was determined as 7290 nM.

In turn, `CCN(CC)[C@@H](C)CNC(=O)c1cc(-c2cnn3ccc(-c4cccs4)nc23)nc(N2CC(C)(OC)C2)c1` gave an EC50 of 8.28 nM. `CCC(=O)Nc1cc(C(=O)NC[C@H](C)N(CC)CC)cc(-c2cnn3ccc(-c4cccs4)nc23)n1` registered an EC50 of 48.8 nM. Then `CCN(CC)[C@@H](C)CNC(=O)c1cc(NS(=O)(=O)C(C)C)nc(-c2cnn3ccc(-c4cccs4)nc23)c1`, with 115 nM; and `CCN(CC)[C@@H](C)CNC(=O)c1cc(-c2cnn3ccc(-c4cccs4)nc23)nc(N2CC(O)(CC)C2)c1`, with 24.7 nM. For the molecule `CCN(CC)[C@@H](C)CNC(=O)c1cc(-c2cnn3ccc(-c4cccs4)nc23)nc(N2CC(NC(=O)N(C)C)C2)c1`, the concentration for a half-maximal effect (EC50) came to 22.6 nM. Then `CCN(CC)[C@@H](C)CNC(=O)c1cc(NC2CCOCC2)nc(-c2cnn3ccc(-c4cccs4)nc23)c1`, with 24.2 nM. Then `CCN(CC)[C@@H](C)CNC(=O)c1cc(-c2cnn3ccc(-c4cccs4)nc23)nc(N2CC(NS(C)(=O)=O)C2)c1`, with 26.4 nM; and `CCOC(=O)Nc1cc(C(=O)NC[C@H](C)N(CC)CC)cc(-c2cnn3ccc(-c4cccs4)nc23)n1`, with 143 nM. Molecule `CCN(CC)[C@@H](C)CNC(=O)c1cc(-c2cnn3ccc(-c4cccs4)nc23)nc(N2CCC3(COC3)C2)c1` returned an EC50 of 18.2 nM.

Molecule `CCN(CC)[C@@H](C)CNC(=O)c1cc(-c2cnn3ccc(-c4cccs4)nc23)nc(N2CC(F)(F)C(F)(F)C2)c1` registered a concentration for a half-maximal effect (EC50) of 61.5 nM. To `CCN(CC)[C@@H](C)CNC(=O)c1cc(-c2cnn3ccc(-c4cccs4)nc23)nc(N2CCN(C(C)=O)CC2)c1` belongs 43.6 nM. Then `CCN(CC)[C@@H](C)CNC(=O)c1cc(-c2cnn3ccc(-c4cccs4)nc23)nc(N2CC(NS(=O)(=O)Cc3ccon3)C2)c1`, with 27 nM. Then `CCN(CC)[C@@H](C)CNC(=O)c1cc(NCC2(C)COC2)nc(-c2cnn3ccc(-c4cccs4)nc23)c1`, with 23.4 nM; and `CCN(CC)[C@@H](C)CNC(=O)c1cc(-c2cnn3ccc(-c4ccns4)nc23)nc(N2CC(OC)C2)c1`, with 13.9 nM; and `CCN(CC)[C@@H](C)CNC(=O)c1cc(-c2cnn3ccc(-c4cccs4)nc23)nc(N2CC(CO)C2)c1`, with 21.6 nM. On to `CCN(CC)[C@@H](C)CNC(=O)c1cc(NCC(=O)NC)nc(-c2cnn3ccc(-c4cccs4)nc23)c1`, for which the response was half-maximal at 108 nM (EC50). `CCN(CC)[C@@H](C)CNC(=O)c1cc(-c2cnn3ccc(-c4cccs4)nc23)nc(N2C[C@H](O)[C@@H](O)C2)c1` returned a concentration for a half-maximal effect (EC50) of 250 nM. Then `CCN(CC)[C@@H](C)CNC(=O)c1cc(N[C@H](C)C(=O)NC)nc(-c2cnn3ccc(-c4cccs4)nc23)c1`, with 147 nM; and `CCN(CC)[C@@H](C)CNC(=O)c1cc(-c2cnn3ccc(-c4cccs4)nc23)nc(N2CC(NC(=O)C3CC3)C2)c1`, with 3.75 nM. Then `CCN(CC)[C@@H](C)CNC(=O)c1cc(Nc2ncc[nH]2)nc(-c2cnn3ccc(-c4cccs4)nc23)c1`, with 247 nM; and `CCN(CC)[C@@H](C)CNC(=O)c1cc(-c2cnn3ccc(-c4cccs4)nc23)nc(N2CCC23COC3)c1`, with 54.5 nM. For the molecule `CCN(CC)[C@@H](C)CNC(=O)c1cc(-c2cnn3ccc(-c4cccs4)nc23)nc(N2CC(NS(=O)(=O)CC)C2)c1`, the midpoint of the response, the EC50, lay at 25.7 nM. To `CCN(CC)[C@@H](C)CNC(=O)c1cc(NS(=O)(=O)C2CC2)nc(-c2cnn3ccc(-c4cccs4)nc23)c1` belongs 95.9 nM. `CCN(CC)[C@@H](C)CNC(=O)c1cc(-c2cnn3ccc(-c4cccs4)nc23)nc(N(C)S(C)(=O)=O)c1` came in with an EC50 of 9.6 nM. Then `CCN(CC)[C@@H](C)CNC(=O)c1cc(-c2cnn3ccc(-c4cccs4)nc23)nc(N2CCC(F)(F)C2)c1`, with 28.1 nM. As to `CCN(CC)[C@@H](C)CNC(=O)c1cc(N[C@H]2CCOC2)nc(-c2cnn3ccc(-c4cccs4)nc23)c1`, the EC50 amounted to 29.9 nM. As to `CCN(CC)[C@@H](C)CNC(=O)c1cc(NCCN2CC(F)(F)C2)nc(-c2cnn3ccc(-c4cccs4)nc23)c1`, the EC50 worked out at 45.6 nM. To `CCN(CC)[C@@H](C)CNC(=O)c1cc(-c2cnn3ccc(-c4cccs4)nc23)nc(N2CC(NS(=O)(=O)C(C)C)C2)c1` belongs 31.5 nM; to `CCN(CC)[C@@H](C)CNC(=O)c1cc(NCCCO)nc(-c2cnn3ccc(-c4cccs4)nc23)c1`, 49.4 nM. To `CCN(CC)[C@@H](C)CNC(=O)c1cc(NC(=O)C2CC2)nc(-c2cnn3ccc(-c4cccs4)nc23)c1` belongs 27.4 nM; to `CCN(CC)[C@@H](C)CNC(=O)c1cc(NCCN2CCOCC2)nc(-c2cnn3ccc(-c4cccs4)nc23)c1`, 27.5 nM; to `CCN[C@@H](C)CNC(=O)c1cc(-c2cnn3ccc(-c4ccccc4)nc23)nc(N2CC(OC)C2)c1`, 145 nM. Take `CCN(CC)[C@@H](C)CNC(=O)c1cc(NC(=O)OC(C)C)nc(-c2cnn3ccc(-c4cccs4)nc23)c1`: the EC50 was found to be 39.8 nM.

`CCN(CC)[C@@H](C)CNC(=O)c1cc(NCc2ncc[nH]2)nc(-c2cnn3ccc(-c4cccs4)nc23)c1` yielded a 50% effective concentration (EC50) of 148 nM. `CCN(CC)[C@@H](C)CNC(=O)c1cc(NS(=O)(=O)CC)nc(-c2cnn3ccc(-c4cccs4)nc23)c1` returned an EC50 of 126 nM. To `CCN(CC)[C@@H](C)CNC(=O)c1cc(-c2cnn3ccc(-c4cccs4)nc23)nc(N2CCC(OC)CC2)c1` belongs 110 nM. To `CCN(CC)[C@@H](C)CNC(=O)c1cc(NCC(N)=O)nc(-c2cnn3ccc(-c4cccs4)nc23)c1` belongs 306 nM; to `CCN(CC)[C@@H](C)CNC(=O)c1cc(NCc2cc[nH]n2)nc(-c2cnn3ccc(-c4cccs4)nc23)c1`, 54.3 nM.

For the molecule `CCN(CC)[C@@H](C)CNC(=O)c1cc(N[C@H](C)CO)nc(-c2cnn3ccc(-c4cccs4)nc23)c1`, a half-maximal effect (EC50) was put at 75.2 nM. In turn, `CCN(CC)[C@@H](C)CNC(=O)c1cc(-c2cnn3ccc(-c4cccs4)nc23)nc(N2CC(NC)C2)c1` gave an EC50 of 69.9 nM.

`CCN[C@@H](C)CNC(=O)c1cc(-c2cnn3ccc(-c4cccs4)nc23)nc(N2CC(C)(O)C2)c1` showed a concentration for a half-maximal effect (EC50) of 368 nM. To `CCN(CC)[C@@H](C)CNC(=O)c1cc(N[C@@H](C)CO)nc(-c2cnn3ccc(-c4cccs4)nc23)c1` belongs 34 nM; to `CCN(CC)[C@@H](C)CNC(=O)c1cc(-c2cnn3ccc(-c4cccs4)nc23)nc(N2CC(C(N)=O)C2)c1`, 71.4 nM; to `CCN(CC)[C@@H](C)CNC(=O)c1cc(-c2cnn3ccc(-c4cccs4)nc23)nc(N2CC(CO)(CO)C2)c1`, 107 nM. Molecule `CCN(CC)[C@@H](C)CNC(=O)c1cc(NC2CC2)nc(-c2cnn3ccc(-c4cccs4)nc23)c1` returned an EC50 of 30.6 nM. To `CCN(CC)[C@@H](C)CNC(=O)c1cc(NCC2COC2)nc(-c2cnn3ccc(-c4cccs4)nc23)c1` belongs 13600 nM; to `CCN(CC)[C@@H](C)CNC(=O)c1cc(NCCC(C)(C)O)nc(-c2cnn3ccc(-c4cccs4)nc23)c1`, 22.3 nM.

The molecule `CCN(CC)[C@@H](C)CNC(=O)c1cc(NCCS(N)(=O)=O)nc(-c2cnn3ccc(-c4cccs4)nc23)c1` displayed an EC50 of 232 nM. For `CCN(CC)[C@@H](C)CNC(=O)c1cc(-c2cnn3ccc(-c4cccs4)nc23)nc(N2C[C@@H]3C[C@H]2CO3)c1`, the EC50 was found to be 514 nM.

Take `CCN(CC)[C@@H](C)CNC(=O)c1cc(-c2cnn3ccc(-c4cccs4)nc23)nc(N2CCNCC2)c1`: the midpoint of the response, the EC50, lay at 67 nM.

`CCN(CC)CCNC(=O)c1cc(-c2cnn3ccc(-c4cccs4)nc23)nc(N2CC(OC)C2)c1`: the EC50 was 90.9 nM. To `CCN(CC)[C@@H](C)CNC(=O)c1cc(N[C@H](C)C(N)=O)nc(-c2cnn3ccc(-c4cccs4)nc23)c1` belongs 355 nM.

In turn, `CCN(CC)[C@@H](C)CNC(=O)c1cc(-c2cnn3ccc(-c4cccs4)nc23)nc(N2CCNC2=O)c1` returned an EC50 of 150 nM.

As to `CCN(CC)[C@@H](C)CNC(=O)c1cc(NS(C)(=O)=O)nc(-c2cnn3ccc(-c4cccs4)nc23)c1`, the response was half-maximal at 107 nM (EC50). To `CCN(CC)[C@@H](C)CNC(=O)c1cc(-c2cnn3ccc(-c4cccs4)nc23)nc(N2CC(O)(C3CC3)C2)c1` belongs 56.7 nM; to `CCN(CC)[C@@H](C)CNC(=O)c1cc(NCCCOC)nc(-c2cnn3ccc(-c4cccs4)nc23)c1`, 31.9 nM; to `CCN(CC)[C@@H](C)CNC(=O)c1cc(Nc2cn[nH]c2)nc(-c2cnn3ccc(-c4cccs4)nc23)c1`, 9.87 nM. `CCN(CC)[C@@H](C)CNC(=O)c1cc(-c2cnn3ccc(-c4cccs4)nc23)nc(N2CC(O)(C(F)(F)F)C2)c1` yielded an EC50 of 26.5 nM. The molecule `CCN(CC)[C@@H](C)CNC(=O)c1cc(NC[C@@H](C)O)nc(-c2cnn3ccc(-c4cccs4)nc23)c1` had a concentration for a half-maximal effect (EC50) of 32.7 nM. `CCN(CC)[C@@H](C)CNC(=O)c1cc(-c2cnn3ccc(-c4cccs4)nc23)nc(N2CC(C(C)(C)O)C2)c1` yielded an EC50 of 57.2 nM. In the case of `CCN(CC)[C@@H](C)CNC(=O)c1cc(-c2cnn3ccc(-c4cccs4)nc23)nc(N2CC(C)(O)C2)c1`, it took 21.4 nM to reach a half-maximal effect (EC50).

With `CCN(CC)[C@@H](C)CNC(=O)c1cc(NC(=O)C(C)C)nc(-c2cnn3ccc(-c4cccs4)nc23)c1`, it took 20.5 nM to reach a half-maximal effect (EC50).

`CCN(CC)[C@@H](C)CNC(=O)c1cc(-c2cnn3ccc(-c4cccs4)nc23)nc(N2CC(N(C)C)C2)c1`: the midpoint of the response, the EC50, lay at 168 nM. In turn, `CCN(CC)[C@@H](C)CNC(=O)c1cc(NC[C@H](C)O)nc(-c2cnn3ccc(-c4cccs4)nc23)c1` had an EC50 of 27.1 nM. `CCN(CC)[C@@H](C)CNC(=O)c1cc(-c2cnn3ccc(-c4cccs4)nc23)nc(N2CC(NC(C)=O)C2)c1` returned a concentration giving a half-maximal response (EC50) of 28.4 nM. To `CCN(CC)[C@@H](C)CNC(=O)c1cc(N[C@@H](C)C(N)=O)nc(-c2cnn3ccc(-c4cccs4)nc23)c1` belongs 148 nM; to `CCN(CC)[C@@H](C)CNC(=O)c1cc(N[C@@H](C)C(=O)NC)nc(-c2cnn3ccc(-c4cccs4)nc23)c1`, 129 nM.
